Measured values as given in ChEMBL document CHEMBL1201862, “PubChem BioAssay data set” (2004).
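Cultured in 96-well plates, cells were exposed to test compound for 48 hours across five concentrations. Abbreviation: GI50, concentration required for 50% inhibition of growth.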 Activity calls are given as the source filed them. No stated cut-off is given here; in the data, active = GI50 up to about 1.1 µM and inactive = higher.

Legend:
Assay in all cases: growth of human tumour cells (NCI), 48 h
A549 = test system: A549
ACHN = test system: ACHN
CCRF-CEM = test system: CCRF-CEM
EKVX = test system: EKVX
HL-60 = test system: HL-60
HOP-62 = test system: HOP-62
M14 = test system: M14
NCI-H226 = test system: NCI-H226
NCI-H460 = test system: NCI-H460
NCI-H522 = test system: NCI-H522
OVCAR-4 = test system: OVCAR-4
SNB-19 = test system: SNB-19
UACC-62 = test system: UACC-62
HOP-92 = test system: HOP-92
SK-OV-3 = test system: SK-OV-3

Measured: GI50

CCOC(=O)C(C(=O)c1ccccc1)=C1NCCN1
inactive: A549 > 100 µM | ACHN > 100 µM | CCRF-CEM > 100 µM | EKVX > 100 µM | HL-60 > 100 µM | HOP-62 > 100 µM | M14 > 100 µM | NCI-H226 > 100 µM | NCI-H460 > 100 µM | NCI-H522 > 100 µM | OVCAR-4 > 100 µM | SNB-19 > 100 µM | UACC-62 > 100 µM

O=C(N/N=C/c1cccc(O)c1O)N/N=C/c1cccc(O)c1O
inactive: A549 35.9 µM | ACHN 13.9 µM | CCRF-CEM 3.5 µM | EKVX 20.5 µM | HOP-92 17.4 µM | M14 14 µM | NCI-H226 23.4 µM | NCI-H460 30.1 µM | OVCAR-4 28.2 µM | SK-OV-3 > 100 µM | SNB-19 30.2 µM | UACC-62 11.9 µM

O=c1cc(-c2ccccc2)c2cc3c(=O)ccoc3cc2o1
inactive: A549 > 100 µM | ACHN 87.9 µM | CCRF-CEM 48.1 µM | EKVX > 100 µM | HL-60 > 100 µM | HOP-62 80.4 µM | M14 > 100 µM | NCI-H226 79.1 µM | NCI-H460 > 100 µM | OVCAR-4 > 100 µM | SNB-19 64.4 µM | UACC-62 62.2 µM

CCCCNC(=O)NNC(=O)c1cc(/C=C/c2cccc([N+](=O)[O-])c2)ncn1
inactive: A549 > 100 µM | ACHN > 100 µM | CCRF-CEM > 100 µM | EKVX > 100 µM | HL-60 > 100 µM | HOP-62 > 100 µM | HOP-92 > 100 µM | M14 > 100 µM | NCI-H226 > 100 µM | NCI-H460 > 100 µM | NCI-H522 > 100 µM | SK-OV-3 > 100 µM | SNB-19 > 100 µM | UACC-62 > 100 µM

CCCCN(CC)C(=O)C(=O)C1C(=O)Nc2ccccc2[S+]1[O-] (centres undefined)
inactive: A549 > 100 µM | ACHN > 100 µM | CCRF-CEM > 100 µM | EKVX 55.6 µM | HOP-62 > 100 µM | HOP-92 > 100 µM | M14 > 100 µM | NCI-H226 > 100 µM | NCI-H460 > 100 µM | NCI-H522 > 100 µM | OVCAR-4 > 100 µM | SK-OV-3 > 100 µM | SNB-19 > 100 µM | UACC-62 > 100 µM

CN(C)CC/C(=N\Nc1ccccc1)c1ccccc1
inactive: A549 45 µM | EKVX 15.7 µM | HOP-62 13.4 µM | HOP-92 11.1 µM | M14 2 µM | OVCAR-4 3.25 µM | SK-OV-3 15.3 µM | SNB-19 40.9 µM | UACC-62 > 100 µM

CCN1N=CSC12C(=O)N(c1ccccc1)C(=O)N2c1ccccc1 (centres undefined)
inactive: A549 > 100 µM | ACHN > 100 µM | CCRF-CEM > 100 µM | EKVX > 100 µM | HL-60 80.5 µM | HOP-62 > 100 µM | HOP-92 > 100 µM | M14 > 100 µM | NCI-H226 > 100 µM | NCI-H460 > 100 µM | NCI-H522 > 100 µM | OVCAR-4 > 100 µM | SK-OV-3 > 100 µM | SNB-19 > 100 µM | UACC-62 > 100 µM

CC(C)(C)C1CCC(=O)C(C(O)CC2CC(=O)N(c3ccccc3)C(=O)C2)C1 (centres undefined)
inactive: A549 > 100 µM | ACHN > 100 µM | CCRF-CEM 53.1 µM | EKVX > 100 µM | HL-60 > 100 µM | HOP-62 > 100 µM | HOP-92 > 100 µM | M14 > 100 µM | NCI-H226 > 100 µM | NCI-H460 > 100 µM | NCI-H522 50.4 µM | OVCAR-4 > 100 µM | SK-OV-3 > 100 µM | SNB-19 > 100 µM | UACC-62 > 100 µM

COc1ccc(S(=O)(=O)N(CC(=O)O)c2ccccc2)cc1
inactive: A549 > 100 µM | ACHN > 100 µM | CCRF-CEM > 100 µM | EKVX > 100 µM | HL-60 > 100 µM | HOP-92 > 100 µM | M14 > 100 µM | NCI-H460 > 100 µM | NCI-H522 > 100 µM | OVCAR-4 > 100 µM | SK-OV-3 > 100 µM | SNB-19 > 100 µM | UACC-62 > 100 µM

COc1ccc(C2Cc3cc(OC)c(OC)c(OC)c3C2=O)cc1 (centres undefined)
inactive: A549 > 100 µM | ACHN > 100 µM | CCRF-CEM > 100 µM | EKVX > 100 µM | HOP-62 > 100 µM | M14 > 100 µM | NCI-H226 > 100 µM | NCI-H460 > 100 µM | OVCAR-4 > 100 µM | SK-OV-3 > 100 µM | SNB-19 > 100 µM | UACC-62 > 100 µM
